Results as given in PubChem BioAssay (NCI).
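The compound was tested at five concentrations on cells cultured in 96-well plates, with a 48-hour exposure period. Abbreviation: GI50, concentration required for 50% inhibition of growth. TGI denotes the concentration required for complete inhibition of growth.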

Legend:
Assay in all cases: NCI tumour cell line growth inhibition, 48 h
786-0 renal = tested on: 786-0 renal
A498 renal = tested on: A498 renal
A549 NSCLC = tested on: A549 NSCLC
ACHN renal = tested on: ACHN renal
BT-549 breast = tested on: BT-549 breast
CAKI-1 renal = tested on: CAKI-1 renal
CCRF-CEM leukemia = tested on: CCRF-CEM leukemia
COLO 205 colon = tested on: COLO 205 colon
DU-145 prostate = tested on: DU-145 prostate
EKVX NSCLC = tested on: EKVX NSCLC
HCC-2998 colon = tested on: HCC-2998 colon
HCT-116 colon = tested on: HCT-116 colon
HCT-15 colon = tested on: HCT-15 colon
HL-60(TB) leukemia = tested on: HL-60(TB) leukemia
HOP-62 NSCLC = tested on: HOP-62 NSCLC
HOP-92 NSCLC = tested on: HOP-92 NSCLC
HS 578T breast = tested on: HS 578T breast
HT29 colon = tested on: HT29 colon
IGROV1 ovarian = tested on: IGROV1 ovarian
K-562 leukemia = tested on: K-562 leukemia
KM12 colon = tested on: KM12 colon
LOX IMVI melanoma = tested on: LOX IMVI melanoma
M14 melanoma = tested on: M14 melanoma
MALME-3M melanoma = tested on: MALME-3M melanoma
MCF7 breast = tested on: MCF7 breast
MDA-MB-231 breast = tested on: MDA-MB-231 breast
MDA-MB-435 = tested on: MDA-MB-435
MOLT-4 leukemia = tested on: MOLT-4 leukemia
NCI-H226 lung = tested on: NCI-H226 lung
NCI-H23 lung = tested on: NCI-H23 lung
NCI-H460 lung = tested on: NCI-H460 lung
NCI-H522 lung = tested on: NCI-H522 lung
NCI/ADR-RES ovarian = tested on: NCI/ADR-RES ovarian
OVCAR-3 ovarian = tested on: OVCAR-3 ovarian
OVCAR-4 ovarian = tested on: OVCAR-4 ovarian
OVCAR-5 ovarian = tested on: OVCAR-5 ovarian
OVCAR-8 ovarian = tested on: OVCAR-8 ovarian
PC-3 prostate = tested on: PC-3 prostate
RPMI-8226 leukemia = tested on: RPMI-8226 leukemia
RXF 393 renal = tested on: RXF 393 renal
SF-268 CNS = tested on: SF-268 CNS
SF-295 CNS = tested on: SF-295 CNS
SF-539 CNS = tested on: SF-539 CNS
SK-MEL-2 melanoma = tested on: SK-MEL-2 melanoma
SK-MEL-28 melanoma = tested on: SK-MEL-28 melanoma
SK-MEL-5 melanoma = tested on: SK-MEL-5 melanoma
SK-OV-3 ovarian = tested on: SK-OV-3 ovarian
SN12C renal = tested on: SN12C renal
SNB-19 CNS = tested on: SNB-19 CNS
SNB-75 CNS = tested on: SNB-75 CNS
SR leukemia = tested on: SR leukemia
SW-620 colon = tested on: SW-620 colon
T-47D breast = tested on: T-47D breast
TK-10 renal = tested on: TK-10 renal
U251 CNS = tested on: U251 CNS
UACC-257 melanoma = tested on: UACC-257 melanoma
UACC-62 melanoma = tested on: UACC-62 melanoma
UO-31 renal = tested on: UO-31 renal

Cc1ccc(C(=O)Nc2ccc(CN3CCN(C)CC3)c(C(F)(F)F)c2)cc1C#Cc1cncc2ncccc12
GI50 (786-0 renal): 480 nM | TGI (786-0 renal): 1940 nM | GI50 (A498 renal): 209 nM | TGI (A498 renal): 656 nM | GI50 (A549 NSCLC): 473 nM | TGI (A549 NSCLC): 5240 nM | GI50 (ACHN renal): 162 nM | TGI (ACHN renal): 999 nM | GI50 (BT-549 breast): 2330 nM | TGI (BT-549 breast): 12600 nM | GI50 (CAKI-1 renal): 222 nM | TGI (CAKI-1 renal): 2520 nM | GI50 (CCRF-CEM leukemia): 902 nM | TGI (CCRF-CEM leukemia): 3610 nM | GI50 (COLO 205 colon): 221 nM | TGI (COLO 205 colon): 5560 nM | GI50 (DU-145 prostate): 388 nM | TGI (DU-145 prostate): 1530 nM | GI50 (EKVX NSCLC): 1120 nM | TGI (EKVX NSCLC): 16700 nM | GI50 (HCC-2998 colon): 2470 nM | TGI (HCC-2998 colon): 22200 nM | GI50 (HCT-116 colon): 274 nM | TGI (HCT-116 colon): 3870 nM | GI50 (HCT-15 colon): 318 nM | TGI (HCT-15 colon): 1280 nM | GI50 (HL-60(TB) leukemia): 282 nM | TGI (HL-60(TB) leukemia): 1610 nM | GI50 (HOP-62 NSCLC): 474 nM | TGI (HOP-62 NSCLC): 6070 nM | GI50 (HOP-92 NSCLC): 147 nM | TGI (HOP-92 NSCLC): 1280 nM | GI50 (HS 578T breast): 232 nM | TGI (HS 578T breast): 1080 nM | GI50 (HT29 colon): 142 nM | TGI (HT29 colon): 1410 nM | GI50 (IGROV1 ovarian): 87.9 nM | TGI (IGROV1 ovarian): 755 nM | TGI (K-562 leukemia): 1670 nM | GI50 (KM12 colon): 338 nM | TGI (KM12 colon): 4490 nM | GI50 (LOX IMVI melanoma): 97.8 nM | TGI (LOX IMVI melanoma): 554 nM | GI50 (M14 melanoma): 87.7 nM | TGI (M14 melanoma): 900 nM | GI50 (MALME-3M melanoma): 113 nM | TGI (MALME-3M melanoma): 951 nM | GI50 (MCF7 breast): 1460 nM | TGI (MCF7 breast): 3440 nM | GI50 (MDA-MB-231 breast): 177 nM | TGI (MDA-MB-231 breast): 1100 nM | GI50 (MDA-MB-435): 286 nM | TGI (MDA-MB-435): 1560 nM | GI50 (MOLT-4 leukemia): 353 nM | TGI (MOLT-4 leukemia): 16800 nM | GI50 (NCI-H226 lung): 625 nM | TGI (NCI-H226 lung): 6190 nM | GI50 (NCI-H23 lung): 894 nM | TGI (NCI-H23 lung): 15100 nM | GI50 (NCI-H460 lung): 428 nM | TGI (NCI-H460 lung): 5020 nM | GI50 (NCI-H522 lung): 323 nM | TGI (NCI-H522 lung): 15600 nM | GI50 (NCI/ADR-RES ovarian): 502 nM | TGI (NCI/ADR-RES ovarian): 16000 nM | GI50 (OVCAR-3 ovarian): 558 nM | TGI (OVCAR-3 ovarian): 14700 nM | GI50 (OVCAR-4 ovarian): 289 nM | TGI (OVCAR-4 ovarian): 4750 nM | GI50 (OVCAR-5 ovarian): 653 nM | TGI (OVCAR-5 ovarian): 5710 nM | GI50 (OVCAR-8 ovarian): 446 nM | TGI (OVCAR-8 ovarian): 4960 nM | GI50 (PC-3 prostate): 3150 nM | TGI (PC-3 prostate): 21400 nM | GI50 (RPMI-8226 leukemia): 584 nM | TGI (RPMI-8226 leukemia): 7680 nM | GI50 (RXF 393 renal): 290 nM | TGI (RXF 393 renal): 1050 nM | GI50 (SF-268 CNS): 408 nM | TGI (SF-268 CNS): 4330 nM | GI50 (SF-295 CNS): 1200 nM | TGI (SF-295 CNS): 16200 nM | GI50 (SF-539 CNS): 420 nM | TGI (SF-539 CNS): 1550 nM | GI50 (SK-MEL-2 melanoma): 191 nM | TGI (SK-MEL-2 melanoma): 599 nM | GI50 (SK-MEL-28 melanoma): 286 nM | TGI (SK-MEL-28 melanoma): 1550 nM | GI50 (SK-MEL-5 melanoma): 2630 nM | TGI (SK-MEL-5 melanoma): 8140 nM | GI50 (SK-OV-3 ovarian): 553 nM | TGI (SK-OV-3 ovarian): 6630 nM | GI50 (SN12C renal): 240 nM | TGI (SN12C renal): 11100 nM | GI50 (SNB-19 CNS): 1290 nM | TGI (SNB-19 CNS): 2620 nM | GI50 (SNB-75 CNS): 264 nM | TGI (SNB-75 CNS): 1390 nM | GI50 (SR leukemia): 630 nM | TGI (SR leukemia): 7780 nM | GI50 (SW-620 colon): 443 nM | TGI (SW-620 colon): 1760 nM | GI50 (T-47D breast): 1580 nM | TGI (T-47D breast): 21100 nM | GI50 (TK-10 renal): 253 nM | TGI (TK-10 renal): 1410 nM | GI50 (U251 CNS): 520 nM | TGI (U251 CNS): 1840 nM | GI50 (UACC-257 melanoma): 402 nM | TGI (UACC-257 melanoma): 4420 nM | GI50 (UACC-62 melanoma): 102 nM | TGI (UACC-62 melanoma): 1260 nM | GI50 (UO-31 renal): 191 nM | TGI (UO-31 renal): 903 nM
